{"source": "patent US20140099354A1", "about": "“BIOPASSIVATING MEMBRANE STABILIZATION BY MEANS OF NITROCARBOXYLIC ACID-CONTAINING PHOSPHOLIPIDS IN PREPARATIONS AND COATINGS” (priority 2011, published 2014)", "key": {"[1]": {"target": "Glycophorin A (GpA) peptides (Homo sapiens, UniProt P02724)", "sequence (P02724 92-114 limits assumed, species assumed)": "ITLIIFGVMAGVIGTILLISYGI", "conditions": "10-50% (mol/mol) admixed to DSPC vesicles; versus native phospholipids", "experimental": "The change of the Frster resonance energy transfer (FRET) of fluorescence-labelled peptides with α helical trans-membrane structure in a double lipid layer can be used for determination of the concentration of monomeric and dimeric trans-membrane helices and for quantitative determination of helix-helix interactions.\nFRET measurements were carried out with fluorescence-marked Glycophorin A (GpA) peptides. The transmembrane GpA forms dimers, whereby the energy transfer can be measured. 5-carboxyfluorescein and tetramethyl-6-carboxyrhodamine were used as chromophores.\nDegree of dimerization of the model protein was measured in a direct comparison between native phospholipids and the corresponding phospholipids with a nitrated alkyl chain for the given concentrations of phospholipids (10-50%, mol/mol) admixed to the DSPC vesicles.\nFor determination of the dimerization, the peptides of FL GpAwt and TAMRA GpAwt were weighed and dissolved in TFE. The measurements were carried out on a fluorescence spectrometer of type Aminco Bowman series 2 (Thermo Spectronic)."}, "[2]": {"tested_on": "ovarian tissue strips", "test": "Cryopreservation of ovarian tissue strips: intact follicles", "conditions": "liquid nitrogen 14 days, cultured 14 days"}, "[3]": {"tested_on": "sciatic nerve", "test": "Viability of cryopreserved nerve grafts (Annexin-V staining, FACS)", "type": "cell-based, rats", "conditions": "100 mmolar solution 1 hour; −30° C. 72 hours", "experimental": "The sciatic nerve was prepared and sectured in anesthetized rats. The nerve pieces were freed from connective tissue and divided into 3 parts. Specimens were placed in culture DMEM medium containing low a concentration of glucose (1 g/L) with L-glutamine (PAA, Pasching Austria) for 24 hours. […] Nerve specimens from the same animals that received no pretreatment served as controls. After incubation, the specimens were cultured for 24 hours. In a further control group, specimens were cryopreserved without any pretreatment. The specimens were covered with a sterile gauze pad moistened with culture medium. Thereafter the temperature was gradually cooled to −30° C. After 72 hours, the nerve pieces were gradually rewarmed to 37° C. After this, renewed culturing was done for 48 hours. The nerve pieces were dissected enzymatically then (collagenase A and D, Roche, Mannheim, Germany) followed by a mechanical separation through multiple uptake and release in a glass pipette. The isolated cells were washed and marked with a living/death staining (Annexin-V-Fluos staining Kit, Roche Diagnostics, Mannheim, Germany) and quantified using FACS analysis. The number of living cells identified was set in relation to the total cells count."}, "[4]": {"tested_on": "human umbilical venous endothelial cells (HUVEC)", "test": "Endothelial cell homing on coated cobalt-chromium metal grids", "type": "cell-based", "conditions": "days 3, 7 and 14", "method": "To investigate the cell homing of endothelial cells onto phospholipid-coated artificial surfaces, metal grids with a cobalt-chromium alloy such as has been described in example 2 were coated. Coatings were performed with nitro-carboxylic acid-containing phosphatidylcholine according to the examples N2-N6 and O6. These were special product mixtures of different esterified 1,2-di(nitro linoleoyl)-sn-glycero-3-phosphatidylcholines (N2), from different esterified 1,2-di(nitro arachidonoyl)-sn-glycero-3-phosphatidylcholines (N3), from different esterified 1,2-di(nitroarachidonoyl)-sn-glycero-3-phosphatidylcholines (N4), different esterified 1,2-di(nitro-γ-linolenoyl)-sn-glycero-3-phosphatidylcholines (N5) or different esterified 1,2-di(nitro-DHA)-sn-glycero-3-phosphatidylcholines (N6) and mixture of 1-palmitoyl-2-(10-hydroxy-9-nitro-α-linolenoyl)-sn-3-glycero-phosphocholine and 1-palmitoyl-2-(9-hydroxy-10-nitro-α-linolenoyl)-sn-3-glycero-phosphocholine (06). Uncoated metal grids served as controls. The grids were placed in a culture dish containing a gel matrix on which human umbilical venous endothelial cells (HUVEC) were grown to confluence. The culture media consisted of 5% FCS, and was changed every second day. Cultivation was performed according to standard procedures. The culture dishes were carefully washed superficially several times after 3, 7, and 14 days with saline. […]"}, "[5]": {"tested_on": "HeLa, HUVEC and L929 fibroblast", "test": "Cell viability with the live/dead assay", "type": "cell-based", "method": "(§1) Physiologically occurring phospholipids can be taken up by virtually all cell lines in large quantities. It is known that phospholipids that contain non-physiologically occurring fatty acid residues can cause cell lyses or death. Three cell lines (HeLa, HUVEC and L929 fibroblast) were cultured in a suitable culture medium of 5% FCS at 37° C. and 5% CO2 concentrations to a subconfluent concentration of 1.5×10^5 cells.\n(§2) SOPC, DOPC, POPC, ONOPC, PNLPC, and the free fatty acids of OA, LA, NOOA, and NOLA were dissolved in 0.5% DMSO. Experiments were performed also with nitro-carboxylic acid-containing phospholipids according to examples N15-N20, G, O3, O5, P2, P5, P8, P9, P11 and Q. PL prepared as aqueous suspensions were added the culture flasks in order to achieve PL concentrations in the culture medium from 10 μmol to 1 mmol. Cell cultures were incubated for 24 h and 48 h. Thereafter, the culture medium was removed and the cells washed twice. Following this, cells suspensions were given in four vials to perform the following analysis:\nStudies of cell viability were carried out with the live/dead assay (Molecular Probes). For this purpose, the cells were washed twice with PBS solution and then seeded into a culture medium. Incubation with the staining solution (in 0.1% DMSO) was carried out over 30 minutes in the dark. The viability analyses were performed using fluorescence microscopy."}, "[6]": {"tested_on": "HeLa, HUVEC and L929 fibroblast", "test": "cells", "type": "cell-based", "conditions": "tested concentrations 10 μmol to 1 mmol; EC50 could not be calculated", "method": "as §1\nSOPC, DOPC, POPC, ONOPC, PNLPC, and the free fatty acids of OA, LA, NOOA, and NOLA were dissolved in 0.5% DMSO. […] Cell cultures were incubated for 24 h and 48 h. Thereafter, the culture medium was removed and the cells washed twice. Following this, cells suspensions were given in four vials to perform the following analysis:\nFor the determination of viability, phenol red was added to the suspended cells. After 4 h, the medium was renewed and 10 μl of the MTT solution was added. The cells were cultured for 4 hours, and then a 10% SDS solution was pipetted. After 24 h, absorption of formazan crystals was measured at 500 nm using a power wave X (bio-tek instruments, Inc., USA). For the quantitative comparison of toxicity, the EC50 was determined."}, "[7]": {"test": "Transisomerization of unsaturated fatty acids in coatings on balloon catheters (FTIR)", "type": "physicochemical", "description": "The natural phospholipids POPC and SLPE, as well as the analogous nitrated phospholipids as shown in example C(PNOPC) and […]), as well as the phospholipids according to examples […], and S as a mono substance and as a combination of the native phospholipids and the corresponding nitro-carboxylic acid (s)-containing phospholipids mixed in a ratio of 1:1 were used for this investigation. Balloon catheters were coated by means of the Langmuir-Schaefer procedure where the balloon segment was aligned longitudinally and coaxial to the solution surface, dipping into the liquid for approx. 1 mm over the entire length. Then the catheter was slowly rotated around its axis 5 times. […] The solution was cooled and given to the coating solution then. In case of incomplete dissolution of the phospholipids or if they separated when cooled, DMSO was added at a concentration of up to 20 vol.-%, preferably up to 10 vol.-%. After coating, the catheters were vacuum dried for 8 hours in order to remove residual solvent. The abrasion or loss of coating layers was determined by weighing the catheter before and after coating as well as after the mechanical stability test in the tubing system as described above using a high precision balance. In order to examine the long-term stability of the coating, catheters coated with phospholipids were sealed with polyethylene glycol 1000 (Roth, Germany). For that purpose PEG 1000 was melted and mixed with a 10% ethanol solution at 50° C. A portion of the phospholipid-coated balloon catheter was coated by means of dip-coating in this PEG solution at 50° C., and dried thereafter for 8 hours. Stability of cis-conformity of unsaturated fatty acids of the phospholipids investigated was determined after heat treatment at 60° C. for three hours in a heating cabinet. After 24 hours and after 2 months the phospholipids coated on the balloon surface were detached and analyzed. Detachment was carried out in 50 ml of a chloroform:methanol mixture (3:1, v: v). A 10 μl aliquot was used for a FTIR spectroscopy. For this purpose the samples were dropped on a ZnSe ATR crystal and then the solvent was evaporated. Degree of transisomerization was determined using the integral of intensity of proton resonance in comparison to that measured from a cis configuration of the reference substances. Measurements were performed 24 hours after coating, heat treatment and after 2 months of storage at 25° C. under sterile room air conditions."}, "[8]": {"tested_on": "HeLa, HUVEC and L929 fibroblast", "test": "Volumetric measurement of cells (Coulter counter)", "type": "cell-based", "conditions": "time-dependent increase after incubation", "method": "as §1, §2\nVolumetric measurement of cells was done in a Histopenz (Sigma) solution with an effective NaCl concentration of 0.9% (approximately 290 mOsm) heated to 37° C. in which the cells were suspended; thereafter the solution was sonified for 2 minutes. Measurements were done using a Coulter counter Z2."}}, "data": [{"compound": "CCCCC/C=C\\C/C=C(\\CCCCCCCC(=O)O[C@H](COC(=O)CCCCCCCCCCCCCCCCC)COP(=O)([O-])OCC[N+](C)(C)C)[N+](=O)[O-]", "note": "[Example P13, 1-stearoyl-2-(E-9-nitrolinoleoyl)-sn-3-glycerophosphocholine]", "values": [{"measurement": "degree of dimerization of the model membrane protein", "setting": "[1]", "result": "significantly greater reduction of dimerization"}]}, {"compound": "1,2-di-(nitrolinoleoyl)-sn-glycero-3-phosphatidylcholines [Example N2]", "values": [{"measurement": "rate of intact follicles relative to the control group", "setting": "[2]", "result": 94, "unit": "%"}, {"measurement": "proportion of living cells relative to non-frozen control", "setting": "[3]", "result": 79, "unit": "%"}, {"measurement": "endothelial cell coverage and growth on coated struts", "setting": "[4]", "result": "slight tendency for a stronger growth of cells"}]}, {"compound": "CCCCCCCC/C=C\\CCCCCCCC(=O)O[C@H](COC(=O)CCCCCCCCCCCCCCC)COP(=O)([O-])OCC[N+](C)(C)C", "note": "[POPC, 1-Palmitoyl-2-oleoyl-sn-glycero-3-PC, reference compound]", "values": [{"measurement": "viability according to the live/dead staining", "setting": "[5]", "result": "high rate of viability"}, {"measurement": "viability as quantified by the MTT assay", "setting": "[6]", "result": "only slightly decreased"}, {"measurement": "proportion of trans-fatty acids", "setting": "[7]; after heat treatment (60° C., three hours)", "result": 80, "unit": "%"}, {"measurement": "degree of transisomerization", "setting": "[7]; coatings after 2 months", "result": 95, "unit": "%"}, {"measurement": "degree of transisomerization", "setting": "[7]; top coating with PEG, after 2 month", "result": 86, "unit": "%"}, {"measurement": "cell volume (increase in size to)", "setting": "[8]", "result": 160, "unit": "%"}]}, {"compound": "1,2-di-(nitro-DHA)-sn-glycero-3-phosphatidylcholines [Example N6]", "values": [{"measurement": "rate of intact follicles relative to the control group", "setting": "[2]", "result": 92, "unit": "%"}, {"measurement": "proportion of living cells relative to non-frozen control", "setting": "[3]", "result": 72, "unit": "%"}, {"measurement": "endothelial cell coverage and growth on coated struts", "setting": "[4]", "result": "slight tendency for a stronger growth of cells"}]}]}
